In brackets after ≈: the same amount, converted by molar mass. Ends that are not written are not given here. Peptide text beside a SMILES is read from it.

In series [1] the test system is HSB erythrocytes. Nature of the series: Hemolytic activity. Format: cell-based, striped bass. The method, then: Hemolytic activity. Freshly packed striped bass erythrocytes (3 ml) isolated from young fingerlings (˜30 g) and adult fish (˜300 g) were washed with phosphate-buffered saline (PBS; pH 7.4) until the supernatant was colorless and resuspended in PBS (30 ml) supplemented with glucose (0.2%, w/v). Synthetic bass hepcidin (10 μl of 880-55 μM) was added to 90 μl of a 1% suspension of washed erythrocytes in microcentrifuge tubes. Triplicate samples were incubated for 30, 90, 180, and 240 min at 37° C. then centrifuged for 10 min at 3500 rpm. Supernatant from the erythrocyte suspension (70 μl) was placed in a microtiter plate and optical density at 405 nm determined. The percentage of hemolysis in hepcidin-treated erythrocytes was expressed relative to hemolysis obtained with a control erythrocyte suspension treated with 0.1% sodium dodecyl sulphate (SDS, 100% hemolysis).
Hemolytic Activity. The hemolytic activity of bass hepcidin was tested with erythrocytes from HSB. […] Greater than 98% of the bass erythrocytes exposed to 44 μM hepcidin for 3 h at 37° C. remained intact. This exposure corresponds to a time point when 96% of Y. enterocolitica exposed to 44 μM hepcidin have been killed (see FIG. 6, Panel A). After 4 h incubation with 44 μM hepcidin, more than 97% of the erythrocytes remained intact. No hemolysis was observed after 4 h at hepcidin concentrations of 11 μM and lower.

The test system of series [2] is spores of A. niger. Nature of the series: Germination and fungicidal assay. The class given is cell-based. As to conditions: 48 hr exposure, re-culture in fresh medium.
Method: Germination and Fungicidal Assay. Spores of A. niger were harvested and resuspended in sterile water containing 0.05% TWEEN-80™, and the concentration adjusted to approximately 10^8 spores per ml. Spores were diluted in half-strength PDB containing 16 μM chloramphenicol to a final concentration of 10^5 spores per ml. Ninety μl of the suspension was placed in sterile flat-bottomed polystyrene 96-well plates with 10 μl of serial dilutions of peptide (440 μM, 220 μM, 110 μM, 55 μM), in water. Germination of spores was allowed to proceed for 2 days at 30° C. in the dark, after which hyphae density was measured by absorbance at 600 nm. After 2 days of incubation, the contents of wells showing no germination were centrifuged for 3 min at 5000 rpm, resuspended in 50 μl of fresh PDB media, and triplicate aliquots spotted onto PDB agar plates. Plates were placed at 30° C. for 3 days to monitor germination of hyphae. The absence of germination indicated fungicidal activity.
Fungicidal Activity. […] After 48 hr exposure to the respective peptides, spores were removed and cultured in fresh medium and examined 48 h later for growth.
Series [3] in a line: Direct binding to ferric iron by NMR. The source says: Instead, hepcidin has shown to have the capability of exerting its effects on the innate immune response of teleosts through a combination of activities. The bass model employed in these studies provides a powerful approach to further elucidate hepcidin function(s), including it potential role in hypoferremia in teleosts.

Series [4] is described as follows: Serum hepcidin after IP injection of synthetic bass hepcidin, competitive ELISA. Format: in vivo. As to conditions: HSB. As for the experimental part: Competition ELISA Protocol. A high-binding 96-well microplate (Corning, Inc., Cat. No. 3590) was coated with 100 μl of a 1:5,000 dilution of affinity-purified rabbit anti-HSB hepcidin antibody (0.68 mg/ml) in carbonate-bicarbonate coating buffer pH 9.6 (Sigma-Aldrich Corp., Cat. No. C-3041). One well contained 100 μl carbonate-bicarbonate coating buffer and no antibody. The plate was covered and placed at 4°C. Following a suitable period of incubation at 4° C., the plate was washed with three, 300 μl volumes of PBS-T (PBS containing 0.05% TWEEN-20™). Next, the plate was blocked with 250 μl of a 2% (w/v) dry milk solution in PBS, covered, and incubated for one hour at RT, shaking at 150 rpm. Samples and standard curves were prepared in a separate 96-well plate. Serum, plasma, and urine samples were diluted with PBS diluted to be within the working range of the standard curve. An aliquot of biotinylated AEEAc-derivatized hepcidin (0.21 mg/ml diluted 1:2000) was added to each well to give a final biotinylated hepcidin concentration of 94.5 ng/ml. From each well of the sample/standard curve dilution plate, 100 μl was transferred to the antibody coated and blocked plate. The plate was covered and incubated at RT, shaking at 150 rpm, for 1 hour to allow competitive binding to occur. […] Absorbance at 450 nm was determined using a THERMOMAX™ microplate reader with SOFTMAX PRO™ software (Molecular Devices). Data were analyzed using a spreadsheet program. […]
The data from these studies is separated by double lines. […] The second data set is from a field study Production Tank 32, where HSB without apparent clinical disease ‘Clinically Healthy’ and “Infected/Moribund” HSB were sampled and their serum hepcidin levels determined (Rows 4-5). […] The fourth experiment is a clinical where the indicated quantities of synthetic, bioactive, bass hepcidin was injected IP and measured in their serum at the indicated timepoints (Rows 8-11). […]

Series [5] can be described thus: Aggregation of bioactive hepcidin in phosphate buffered saline. Format: physicochemical. As to conditions: pH 7.4. The source says:
Development of bass hepcidin enzyme/ligand conjugates for ELISA. We took advantage of the only available (N-terminal) primary amine group present in refolded bass hepcidin for conjugation to KLH using EDC (1-Ethyl-3-[3-Dimethylamino-propyl] carbodiimide HCl) and DSS (Disuccinimidyl suberate) chemistries. These approaches were very difficult to develop and apply to production of hepcidin conjugates due to hepcidin's inherent solubility issues in higher pH coupling buffers. […] We have encountered significant issues when trying to solubilize hepcidin at the higher concentrations (1-3 mg ml^−1) in standard coupling buffers desirable for production of high activity, soluble hepcidin-HRP conjugates for ELISA.

For series [6], the system named is S. iniae. The method, then:
(§1) Antimicrobial Synergism Studies. Synergism between synthetic bass hepcidin and moronecidin was tested in checkerboard liquid growth inhibition assays. In brief, two-fold serial dilutions of each peptide were made in water, and 10 μl of the solution added to the bottom of the wells of a 96-well plate. Ninety μl of exponential phase bacterial cultures (OD600˜0.2) were freshly diluted in culture media to ˜2×10^5 CFU ml^−1 and added to peptide solutions. Controls consisted of wells with the appropriate volume and concentration of each peptide alone, or of water. Bacterial viability was assayed at 2 h by plating aliquots of the bacterial suspension for CFU enumeration. The bacterial suspensions were further incubated overnight at 37° C. and bacterial growth was monitored by optical density at 600 nm for determination of MIC. Synergistic activity was quantify as fractional inhibition concentration (FIC) index=([A]/MICA)+([B]/MICB), where MICA and MICB are the MICs of the peptides alone and [A] and [B] are the MICs of A and B when used together.
(§2) To test for synergism between the two antimicrobial peptides in vitro, we conducted liquid growth inhibition/killing experiments with a Gram-positive (S. iniae) and a Gram-negative bacterium (Y enterocolitica) using varying concentrations of the two synthetic peptides. The bacteria were cultured in the presence of synthetic bass hepcidin and moronecidin and plated after 2 h incubation at 37° C. for determination of CFU (FIG. 14).

Series [7] relates to Yersinia enterocolitica. Nature of the series: Microbicidal kinetics. The class given is cell-based. As for the experimental part: Microbicidal Kinetics. An experiment was conducted to examine the microbicidal kinetics of bass hepcidin and to compare its killing activity to another bass antimicrobial peptide, moronecidin. Moronecidin is a 22 amino acid, linear, amphipathic α-helical peptide which was originally co-purified from the gill of HSB with hepcidin. […] We compared the killing kinetics of hepcidin and moronecidin against Y enterocolitica at 30 min intervals over a 3 h time period using 2× their MIC concentrations for this organism (44 and 10 μM; FIG. 12). The bactericidal activities of the peptides were assessed by plating cultures and counting CFUs after overnight incubation at 37° C.

The subject of series [8] is E. coli.
For series [9], the system named is Y. enterocolitica. As for the experimental part:
as §1, §2

For the molecule `CSCC[C@@H]1NC(=O)[C@H](CC(N)=O)NC(=O)[C@@H]2CCCN2C(=O)[C@@H]2CSSC[C@@H]3NC(=O)[C@H](C(C)C)NC(=O)CNC(=O)[C@H](CSSC[C@@H]4NC(=O)[C@H](CSSC[C@H](NC(=O)[C@H](CC(N)=O)NC4=O)C(=O)N2)NC(=O)[C@H](Cc2ccccc2)NC(=O)[C@H](CCCNC(=N)N)NC(=O)[C@@H](NC(=O)CN)CSSC[C@@H](C(=O)N[C@@H](CCCNC(=N)N)C(=O)N[C@@H](Cc2ccccc2)C(=O)O)NC3=O)NC(=O)CNC(=O)[C@H](CO)NC1=O` [bass hepcidin] (HELM PEPTIDE1{G.C.R.F.C.C.N.C.C.P.N.M.S.G.C.G.V.C.C.R.F}$PEPTIDE1,PEPTIDE1,2:R3-19:R3|PEPTIDE1,PEPTIDE1,5:R3-8:R3|PEPTIDE1,PEPTIDE1,6:R3-15:R3|PEPTIDE1,PEPTIDE1,9:R3-18:R3$$$V2.0; N-terminus and C-terminus assumed), the Hemolytic activity is recorded as 0% of controls in series [1] (5.5 μM, 30 min., 37° C.); 0% of controls in series [1] (5.5 μM, 90 min.); 0% of controls in series [1] (5.5 μM, 180 min.); 0% of controls in series [1] (11 μM, 30 min.); 0% of controls in series [1] (11 μM, 90 min.); 0% of controls in [1] (11 μM, 180 min.). The Hemolytic activity is listed as 0% of controls in series [1] (22 μM, 30 min.); 0% of controls in [1] (22 μM, 90 min.); 0.4 ± 0.15% of controls in [1] (22 μM, 180 min.); 0.4 ± 0.4% of controls in series [1] (22 μM, 240 min.); 0% of controls in series [1] (44 μM, 30 min.); 0% of controls in series [1] (44 μM, 90 min.). Further, the Hemolytic activity in series [1] (44 μM, 180 min.) was 1.4 ± 0.3% of controls; in [1] (44 μM, 240 min.), 2.5 ± 1.2% of controls. Besides, the Erythrocytes remaining intact result is “Greater than 98%” in series [1] (44 μM, 3 h, 37° C.) and “more than 97%” in [1] (44 μM, 4 h). In addition, the Hemolysis result in series [1] (4 h, 11 μM and lower) was “No hemolysis”. Further, the Fungicidal concentration in series [2] turned out to be 44 µM. In addition, the “Direct binding to ferric iron” value in [3] is listed as “no evidence”. The level at 3 h amounted to 39.3 µg/mL in series [4] (50 ug, 50 μg IP) and 204 µg/mL in series [4] (300 ug, 300 μg IP). Also, the level at 6 h in series [4] (2 × 300 μg IP (0 and 3 h), sampled 6 h) turned out to be 230 µg/mL. Further, the “Concentration at which it readily aggregates” value in series [5] amounted to 0.05 µg/mL. Further, in series [6] (2 h incubation, concentrations as high as 88 μM), the “Antimicrobial activity against S. iniae” value was “no detectable antimicrobial activity”. For the same molecule, the “Time required for 90% reduction of CFU from the original inoculum” value in [7] (44 μM) was “Two and half hours”. For the same molecule, in series [7] (22 and 44 μM), the “State of cultures at 30 min” value is given as “actually growing”. The molecule further came in with an MIC in series [7] (Y. enterocolitica) of 22 µM (≈ 49.6 µg/mL).

Consider “FFHHIFRGIVHVGKTIHKLVTG-NH2 (C-terminus assumed) [moronecidin, reference compound]”, for which the results for the minimum inhibitory concentration (MIC) in series [8], in series [9] and in series [6] were 5 µM, 5 µM and 2.5 µM, respectively. In [2], this molecule gave a Fungicidal concentration of 10 µM. Further, in series [7] (10 μM (2× MIC), after 30 min), the “Decrease in CFU” value stood at 90%.

Values taken from patent US7723063B2, “Methods for measuring levels of bioactive human hepcidin” (Intrinsic Lifesciences, priority 2004, dated 2010).
